From ChEMBL document CHEMBL3997827, “Synthesis of novel spiro[pyrazolo[4,3-d]pyrimidinones and spiro[benzo[4,5]thieno[2,3-d]pyrimidine-2,3'-indoline]-2',4(3H)-diones and their evaluation for anticancer activity” (Bioorg Med Chem Lett, 2017)
Each block holds one compound with its values, some of them ahead of it.

What was measured:
K562 = assay: Cytotoxicity against human K562 cells assessed as decrease in cell viability after 24 hrs by MTT assay; type: functional, cell-based; conditions: K562, 24 h
COLO 205 = assay: Cytotoxicity against human COLO205 cells assessed as decrease in cell viability after 24 hrs by MTT assay; type: functional, cell-based; conditions: COLO 205, 24 h
MDA-MB-231 = assay: Cytotoxicity against human MDA-MB-231 cells assessed as decrease in cell viability after 24 hrs by MTT assay; type: functional, cell-based; conditions: MDA-MB-231, 24 h
[1] = biological target: T1, NAD-dependent protein deacetylase sirtuin-1 (Homo sapiens) (UniProt Q96EB6); assay: Inhibition of human Sirt1 expressed in bacteria at 10 uM using fluorophorelabeled substrate peptide after 15 mins by fluorescence assay relative to control
T1 sequence (whole entry): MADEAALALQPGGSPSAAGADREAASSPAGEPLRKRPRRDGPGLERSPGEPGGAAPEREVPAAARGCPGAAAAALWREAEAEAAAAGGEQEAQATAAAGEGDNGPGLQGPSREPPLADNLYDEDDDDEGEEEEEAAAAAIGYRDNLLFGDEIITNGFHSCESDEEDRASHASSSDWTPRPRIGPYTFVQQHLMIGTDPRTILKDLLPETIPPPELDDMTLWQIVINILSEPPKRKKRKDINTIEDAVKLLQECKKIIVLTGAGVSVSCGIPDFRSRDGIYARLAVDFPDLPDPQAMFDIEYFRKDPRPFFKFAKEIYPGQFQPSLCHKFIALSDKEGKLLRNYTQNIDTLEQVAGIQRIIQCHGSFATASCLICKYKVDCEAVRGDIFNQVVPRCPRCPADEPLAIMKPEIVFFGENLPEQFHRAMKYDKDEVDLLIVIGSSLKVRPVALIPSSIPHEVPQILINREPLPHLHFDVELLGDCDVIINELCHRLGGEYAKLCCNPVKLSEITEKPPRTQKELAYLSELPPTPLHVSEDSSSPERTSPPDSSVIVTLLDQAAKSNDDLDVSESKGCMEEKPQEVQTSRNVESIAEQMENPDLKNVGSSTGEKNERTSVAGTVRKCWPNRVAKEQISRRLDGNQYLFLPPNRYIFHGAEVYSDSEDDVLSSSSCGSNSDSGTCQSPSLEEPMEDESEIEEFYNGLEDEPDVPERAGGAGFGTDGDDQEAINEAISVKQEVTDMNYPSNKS

- inhibition [1]: 46 to 69%
Structure (SMILES): CN1C(=O)C2(NC(=O)c3c(sc4c3CCCC4)N2)c2ccccc21 (centres undefined)
- IC50 (K562): 16 µM
- IC50 (COLO 205): 9 µM
- IC50 (MDA-MB-231): 39 µM

- inhibition [1]: 46 to 69%
Structure (SMILES): CC(C)N1C(=O)C2(NC(=O)c3c(sc4c3CCCC4)N2)c2ccccc21 (centres undefined)
- IC50 (K562): 12 µM
- IC50 (COLO 205): 6 µM
- IC50 (MDA-MB-231): 22 µM

Structure (SMILES): CCCc1nn(C)c2c1NC1(NC2=O)C(=O)N(C)c2ccccc21 (centres undefined)
- IC50 (K562): 20 µM
- IC50 (COLO 205): 15 µM
- IC50 (MDA-MB-231): 34 µM

Structure (SMILES): CCCc1nn(C)c2c1NC1(NC2=O)C(=O)N(CC)c2ccccc21 (centres undefined)
- IC50 (K562): 22 µM
- IC50 (COLO 205): 16 µM
- IC50 (MDA-MB-231): 41 µM

Structure (SMILES): CCCc1nn(C)c2c1NC1(CCCCCC1)NC2=O
- IC50 (K562): 21 µM
- IC50 (COLO 205): 26 µM
- IC50 (MDA-MB-231): 52 µM

- inhibition [1]: 46 to 69%
Structure (SMILES): CCCc1nn(C)c2c1NC1(NC2=O)C(=O)N(Cc2ccccc2)c2ccccc21 (centres undefined)
- IC50 (K562): 16 µM
- IC50 (COLO 205): 15 µM
- IC50 (MDA-MB-231): 38 µM

Structure (SMILES): CCN1C(=O)C2(NC(=O)c3c(sc4c3CCCC4)N2)c2ccccc21 (centres undefined)
- IC50 (K562): 21 µM
- IC50 (COLO 205): 12 µM
- IC50 (MDA-MB-231): 34 µM

- inhibition [1]: 46 to 69%
Structure (SMILES): CCCCCCCCCCCCCCCCN1C(=O)C2(NC(=O)c3c(sc4c3CCCC4)N2)c2ccccc21 (centres undefined)
- IC50 (K562): 19 µM
- IC50 (COLO 205): 18 µM
- IC50 (MDA-MB-231): 34 µM

Structure (SMILES): CCCc1nn(C)c2c1NC1(CCC(C)(C)CC1)NC2=O
- IC50 (K562): 19 µM
- IC50 (COLO 205): 24 µM
- IC50 (MDA-MB-231): 45 µM

- inhibition [1]: 46 to 69%
Structure (SMILES): CCCc1nn(C)c2c1NC1(NC2=O)C(=O)N(C(=O)OC(C)(C)C)c2ccccc21 (centres undefined)
- IC50 (K562): 15 µM
- IC50 (COLO 205): 10 µM
- IC50 (MDA-MB-231): 28 µM

Structure (SMILES): CCCc1nn(C)c2c1NC1(CCCC1)NC2=O
- IC50 (K562): 14 µM
- IC50 (COLO 205): 17 µM
- IC50 (MDA-MB-231): 34 µM

Structure (SMILES): CCCCCCCCCCCCN1C(=O)C2(NC(=O)c3c(sc4c3CCCC4)N2)c2ccccc21 (centres undefined)
- IC50 (K562): 27 µM
- IC50 (COLO 205): 16 µM
- IC50 (MDA-MB-231): 29 µM

Structure (SMILES): CCCc1nn(C)c2c1NC1(CCCCC1)NC2=O
- IC50 (K562): 16 µM
- IC50 (COLO 205): 18 µM
- IC50 (MDA-MB-231): 35 µM
